Experimental data published in paper PMC10801920 (Proceedings of the National Academy of Sciences of the …, 2024).

How the values were obtained:
CtSpartinL = target: T1, CtSpartinL (Thermochaetoides thermophila, UniProt G0S883); assay: FRET-based lipid transfer between tethered liposomes; type: biochemical; settings: 30 C, pH 8.0; labelled compound
T1 sequence (G0S883 7-480): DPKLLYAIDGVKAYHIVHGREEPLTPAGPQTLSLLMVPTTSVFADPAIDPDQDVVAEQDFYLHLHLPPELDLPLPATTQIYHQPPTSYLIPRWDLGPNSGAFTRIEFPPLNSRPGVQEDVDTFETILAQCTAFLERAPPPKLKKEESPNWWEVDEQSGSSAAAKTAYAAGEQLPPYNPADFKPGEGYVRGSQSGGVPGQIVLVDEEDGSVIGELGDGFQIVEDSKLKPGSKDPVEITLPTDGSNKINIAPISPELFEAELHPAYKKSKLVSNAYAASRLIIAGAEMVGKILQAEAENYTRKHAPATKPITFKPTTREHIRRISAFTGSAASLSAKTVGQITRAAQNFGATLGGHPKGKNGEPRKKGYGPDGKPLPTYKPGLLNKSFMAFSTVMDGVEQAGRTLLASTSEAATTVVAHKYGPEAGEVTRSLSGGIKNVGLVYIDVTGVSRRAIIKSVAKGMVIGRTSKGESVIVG

CeSpartin = target: T2, CeSpartin (Caenorhabditis elegans, UniProt O44735); assay: as above; type: biochemical; settings: 30 C, pH 8.0, labelled compound
T2 sequence (O44735 1-476): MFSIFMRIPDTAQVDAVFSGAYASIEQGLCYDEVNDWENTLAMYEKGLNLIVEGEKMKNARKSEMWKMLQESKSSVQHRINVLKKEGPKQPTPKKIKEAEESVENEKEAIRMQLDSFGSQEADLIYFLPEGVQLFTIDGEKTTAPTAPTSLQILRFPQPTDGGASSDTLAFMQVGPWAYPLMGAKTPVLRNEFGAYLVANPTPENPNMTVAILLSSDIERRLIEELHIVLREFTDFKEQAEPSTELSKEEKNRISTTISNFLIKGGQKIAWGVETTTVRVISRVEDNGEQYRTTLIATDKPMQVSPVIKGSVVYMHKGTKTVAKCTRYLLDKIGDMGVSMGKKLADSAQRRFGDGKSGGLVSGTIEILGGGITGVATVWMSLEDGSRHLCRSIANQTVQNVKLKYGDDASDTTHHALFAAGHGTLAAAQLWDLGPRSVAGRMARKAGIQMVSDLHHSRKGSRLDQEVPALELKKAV

CtSpartinLSD = target: T3, CtSpartinLSD (Thermochaetoides thermophila, UniProt G0S883); assay: native gel comigration; type: binding; settings: on ice, 2 h; labelled compound; also transferred between liposomes
T3 sequence (G0S883 186-480): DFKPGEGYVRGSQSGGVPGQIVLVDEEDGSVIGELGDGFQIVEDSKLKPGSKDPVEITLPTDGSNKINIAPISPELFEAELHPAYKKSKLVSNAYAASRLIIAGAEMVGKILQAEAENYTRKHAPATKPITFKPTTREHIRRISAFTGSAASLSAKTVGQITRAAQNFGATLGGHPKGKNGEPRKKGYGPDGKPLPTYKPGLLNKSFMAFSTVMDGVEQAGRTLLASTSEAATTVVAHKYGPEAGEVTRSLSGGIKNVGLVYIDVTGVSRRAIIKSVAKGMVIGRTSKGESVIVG

[1] = target: spartin-like protein from Chaetomium thermophilum (CtSpartinL), residues 7-480 (Chaetomium thermophilum); assay: native gel or EMSA
[2] = target: C. elegans spartin (CeSpartin) (C. elegans); assay: native gel or EMSA
native gel or EMSA = target: the molecule itself; assay: native gel or EMSA

CCCCCCCCCCCCCCCC(=O)OC[C@H](COP(=O)([O-])OCC[N+](C)(C)C)OC(=O)CCCCCNc1ccc([N+](=O)[O-])c2nonc12 [NBD-PC, 1-palmitoyl-2-{6-[(7-nitro-2-1,3-benzoxadiazol-4-yl)amino]hexanoyl}-sn-glycero-3-phosphocholine]
FRET-based lipid transfer between tethered liposomes (CtSpartinL): addition of CeSpartin, HsSpartin or CtSpartinL to the liposomes all result in increased NBD fluorescence
FRET-based lipid transfer between tethered liposomes (CeSpartin): we observed fluorescence increases consistent with NBD-PC or NBD-PE transfer
native gel comigration (CtSpartinLSD): senescence domain fragment comigrates with NBD-PC on native gels

CCCCCCCCCCCCCCCC(=O)OC[C@H](COP(=O)(O)OCCN)OC(=O)CCCCCNc1ccc([N+](=O)[O-])c2nonc12 [NBD-PE, 1-palmitoyl-2-{6-[(7-nitro-2-1,3-benzoxadiazol-4-yl)amino]hexanoyl}-sn-glycero-3-phosphoethanolamine]
FRET-based lipid transfer between tethered liposomes (CeSpartin; less robust than NBD-PC): we observed fluorescence increases consistent with NBD-PC or NBD-PE transfer

spartin-like protein from Chaetomium thermophilum (CtSpartinL), residues 7-480 (natural protein)
stoichiometry N [1]: 3

C. elegans spartin (CeSpartin) (natural protein)
stoichiometry N [2]: 3

B1: human spartin (HsSpartin) (natural protein, UniProt Q8N0X7 1-666, looked up)
chain: MEQEPQNGEPAEIKIIREAYKKAFLFVNKGLNTDELGQKEEAKNYYKQGIGHLLRGISISSKESEHTGPGWESARQMQQKMKETLQNVRTRLEILEKGLATSLQNDLQEVPKLYPEFPPKDMCEKLPEPQSFSSAPQHAEVNGNTSTPSAGAVAAPASLSLPSQSCPAEAPPAYTPQAAEGHYTVSYGTDSGEFSSVGEEFYRNHSQPPPLETLGLDADELILIPNGVQIFFVNPAGEVSAPSYPGYLRIVRFLDNSLDTVLNRPPGFLQVCDWLYPLVPDRSPVLKCTAGAYMFPDTMLQAAGCFVGVVLSSELPEDDRELFEDLLRQMSDLRLQANWNRAEEENEFQIPGRTRPSSDQLKEASGTDVKQLDQGNKDVRHKGKRGKRAKDTSSEEVNLSHIVPCEPVPEEKPKELPEWSEKVAHNILSGASWVSWGLVKGAEITGKAIQKGASKLRERIQPEEKPVEVSPAVTKGLYIAKQATGGAAKVSQFLVDGVCTVANCVGKELAPHVKKHGSKLVPESLKKDKDGKSPLDGAMVVAASSVQGFSTVWQGLECAAKCIVNNVSAETVQTVRYKYGYNAGEATHHAVDSAVNVGVTAYNINNIGIKAMVKKTATQTGHTLLEDYQIVDNSQRENQEGAANVNVRGEKDEQTKEVKEAKKKDK
stoichiometry N (native gel or EMSA): ~3
